For 35 compounds, IC50 results are on record in USRE48711E1, “Apoptosis signal-regulating kinase inhibitors” (Gilead Sciences, Inc., priority 2009, dated 2021).

Chain of ASK1 (Apoptosis Signal-Regulating Kinase 1) (Q99683 649-946): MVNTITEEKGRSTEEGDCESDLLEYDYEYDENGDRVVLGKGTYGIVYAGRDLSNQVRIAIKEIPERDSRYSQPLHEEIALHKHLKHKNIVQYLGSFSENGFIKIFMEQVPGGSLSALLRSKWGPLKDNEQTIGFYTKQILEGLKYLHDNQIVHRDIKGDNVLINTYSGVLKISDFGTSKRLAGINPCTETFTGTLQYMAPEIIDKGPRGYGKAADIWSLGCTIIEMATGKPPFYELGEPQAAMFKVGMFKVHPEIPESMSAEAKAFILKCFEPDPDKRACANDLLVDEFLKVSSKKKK

This assay concerns the target ASK1 (Apoptosis Signal-Regulating Kinase 1) (Homo sapiens (Human), UniProt Q99683). The assay is described as follows: ASK1 (Apoptosis Signal-Regulating Kinase 1) TR-FRET Kinase Assay (Biochemical IC50). The conditions noted are these: TR-FRET, biotin-MBP substrate, 20 min pre-incubation, ATP added as 300 μM solution. On the technique in general: Time-resolved FRET reads energy transfer from a long-lived donor to a nearby acceptor.
As usually defined, the IC50 is the midpoint of a concentration-inhibition curve. As for `Cc1ncc(-c2ccnc(C(=O)Nc3cccc(-c4nncn4C4CC4)c3)c2)n1C` [Example 73, N-(3-(4-cyclopropyl-4H-1,2,4-triazol-3-yl)phenyl)-4-(1,2-dimethyl-1H-imidazol-5-yl)picolinamide], half-maximal inhibition (IC50) was put at 11 nM.
The compound `Cc1nccn1-c1ccnc(C(=O)Nc2cccc(-c3nncn3C3CC3)c2)c1` [Example 41, N-(3-(4-cyclopropyl-4H-1,2,4-triazol-3-yl)phenyl)-4-(2-methyl-1H-imidazol-1-yl)picolinamide] returned an IC50 of 48 nM.
With `O=C(Nc1cccc(-c2nncn2C2CC2)n1)c1cccc(-n2cnc(C(O)C(F)(F)F)c2)c1` (centres unmarked) [Example 208, N-(6-(4-cyclopropyl-4H-1,2,4-triazol-3-yl)pyridin-2-yl)-3-(4-(2,2,2-trifluoro-1-hydroxyethyl)-1H-imidazol-1-yl)benzamide] the figure was 5 nM; with `O=C(Nc1cccc(-c2nncn2C2CC2)n1)c1cc(-c2ccc(C3CC3)nc2)c(Cl)cc1F` [Example 265, 4-chloro-N-(6-(4-cyclopropyl-4H-1,2,4-triazol-3-yl)pyridin-2-yl)-5-(6-cyclopropylpyridin-3-yl)-2-fluorobenzamide], 27 nM.
In turn, `O=C(Nc1cccc(-c2nncn2C2CC2)c1)c1cc(-n2cnc3c2CCNC3C(F)(F)F)ccn1` (centres unmarked) [Example 194, N-(3-(4-cyclopropyl-4H-1,2,4-triazol-3-yl)phenyl)-4-(4-(trifluoromethyl)-4,5,6,7-tetrahydro-1H-imidazo[4,5-c]pyridin-1-yl)picolinamide] yielded an IC50 of 12 nM.
With `Nc1ccc(-c2ccnc(C(=O)Nc3cccc(-c4nncn4C4CC4)c3)c2)cn1` [Example 22, 6-amino-N-(3-(4-cyclopropyl-4H-1,2,4-triazol-3-yl)phenyl)-3,4′-bipyridine-2′-carboxamide] the figure was 9 nM; with `O=C(Nc1cccc(-c2nncn2C2CC2)c1)c1cc(-c2cncc(C(F)(F)F)c2)ccn1` [Example 59, N-(3-(4-cyclopropyl-4H-1,2,4-triazol-3-yl)phenyl)-5-(trifluoromethyl)-3,4′-bipyridine-2′-carboxamide], 44 nM; with `Cc1cnc(C(=O)Nc2cccc(-c3nncn3C3CC3)n2)cc1-c1ccc(C2CC2)nc1` [Example 215, 6-cyclopropyl-N-(6-(4-cyclopropyl-4H-1,2,4-triazol-3-yl)pyridin-2-yl)-5′-methyl-3,4′-bipyridine-2′-carboxamide], 30 nM.
`Cc1ccc(C(=O)Nc2cccc(-c3nncn3C3CC3)n2)cc1-n1cnc(C2CC2)c1` [Example 200, 3-(4-cyclopropyl-1H-imidazol-1-yl)-N-(6-(4-cyclopropyl-4H-1,2,4-triazol-3-yl)pyridin-2-y1)-4-methylbenzamide] gave an IC50 of 11 nM.
With `O=C(Nc1cccc(-c2nncn2C2CC2)c1)c1cc(-n2nnc3ccccc32)ccn1` [Example 85, 4-(1H-benzo[d][1,2,3]triazol-1-yl)-N-(3-(4-cyclopropyl-4H-1,2,4-triazol-3-yl)phenyl)picolinamide] the figure was 141 nM; with `O=C(Nc1cccc(-c2nncn2C2CC2)c1)c1cc(-c2ccc(OCC(F)(F)F)nc2)ccn1` [Example 56, N-(3-(4-cyclopropyl-4H-1,2,4-triazol-3-yl)phenyl)-6-(2,2,2-trifluoroethoxy)-3,4′-bipyridine-2′-carboxamide], 69 nM.
With `O=C(Nc1cccc(-c2nncn2C2CC2)c1)c1cc(-n2cnc3cnccc32)ccn1` [Example 83, N-(3-(4-cyclopropyl-4H-1,2,4-triazol-3-yl)phenyl)-4-(1H-imidazo[4,5-c]pyridin-1-yl)picolinamide] the figure was 53 nM; with `C[C@@H](CO)n1cnnc1-c1cccc(NC(=O)c2cc(-c3cccnc3)ccn2)c1` [Example 20, (S)-N-(3-(4-(1-hydroxypropan-2-yl)-4H-1,2,4-triazol-3-yl)phenyl)-3,4′-bipyridine-2′-carboxamide], 39 nM.
The value for `CCc1ccc(-c2ccnc(C(=O)Nc3ccc(F)c(-c4nncn4C4CC4)c3)c2)cn1` [Example 148, N-(3-(4-cyclopropyl-4H-1,2,4-triazol-3-yl)-4-fluorophenyl)-6-ethyl-3,4′-bipyridine-2′-carboxamide] was 56 nM; that for `O=C(Nc1cccc(-c2nncn2C2CC2)c1)c1cc(-c2cnc3cccnc3c2)ccn1` [Example 190, N-(3-(4-cyclopropyl-4H-1,2,4-triazol-3-yl)phenyl)-4-(1,5-naphthyridin-3-yl)picolinamide] was 13 nM.
For `O=C(Nc1cccc(-c2nncn2C2CC2)c1)c1cc(-n2cnc3c2CCCC3)ccn1` [Example 86, N-(3-(4-cyclopropyl-4H-1,2,4-triazol-3-yl)phenyl)-4-(4,5,6,7-tetrahydro-1H-benzo[d]imidazol-1-yl)picolinamide], the IC50 turned out to be 9 nM.
With `O=C(Nc1cccc(-c2nncn2C2CC2)n1)c1cccc(-c2cnc3ccccc3c2)c1` [Example 150, N-(6-(4-cyclopropyl-4H-1,2,4-triazol-3-yl)pyridin-2-yl)-3-(quinolin-3-yl)benzamide], the IC50 worked out at 17 nM.
In turn, `Cn1cnnc1-c1cccc(NC(=O)c2cc(-c3cnc4ccccn34)ccn2)c1` [Example 13, 4-(imidazo[1,2-a]pyridin-3-yl)-N-(3-(4-methyl-4H-1,2,4-triazol-3-yl)phenyl)picolinamide] came in with an IC50 of 44 nM.
`COc1ncc(-c2ccnc(C(=O)Nc3cccc(-c4nncn4C4CC4)c3)c2)cn1` [Example 45, N-(3-(4-cyclopropyl-4H-1,2,4-triazol-3-yl)phenyl)-4-(2-methoxypyrimidin-5-yl)picolinamide] came in with a 50% inhibitory concentration (IC50) of 9 nM.
With `CNS(=O)(=O)c1ccc(-c2ccnc(C(=O)Nc3cccc(-c4nncn4C4CC4)n3)c2)cc1` [Example 111, N-(6-(4-cyclopropyl-4H-1,2,4-triazol-3-yl)pyridin-2-yl)-4-(4-(N-methylsulfamoyl)phenyl)picolinamide] the figure was 9 nM; with `O=C(Nc1cccc(-c2nncn2C2CC2)c1)c1cc(-c2ccc(N3CCCC3)nc2)ccn1` [Example 47, N-(3-(4-cyclopropyl-4H-1,2,4-triazol-3-yl)phenyl)-6-(pyrrolidin-1-yl)-3,4′-bipyridine-2′-carboxamide], 32 nM.
As to `COc1ccc(C(=O)Nc2cccc(-c3nncn3C3CC3)n2)cc1-n1cnc(C2CC2)c1` [Example 228, 3-(4-cyclopropyl-1H-imidazol-1-yl)-N-(6-(4-cyclopropyl-4H-1,2,4-triazol-3-yl)pyridin-2-yl)-4-methoxybenzamide], the IC50 was determined as 7 nM.
With `O=C(Nc1cccc(-c2nncn2C2CC2)c1)c1cc(-c2ccc(CC(F)(F)F)nc2)ccn1` [Example 171, N-(3-(4-cyclopropyl-4H-1,2,4-triazol-3-yl)phenyl)-6-(2,2,2-trifluoroethyl)-3,4′-bipyridine-2′-carboxamide] the figure was 7 nM.
`NC(=O)c1ccc(-c2ccnc(C(=O)Nc3cccc(-c4nncn4C4CC4)c3)c2)cn1` [Example 51, N2′-(3-(4-cyclopropyl-4H-1,2,4-triazol-3-yl)phenyl)-3,4′-bipyridine-2′,6-dicarboxamide] had an IC50 of 8 nM.
The value for `O=C(Nc1cccc(-c2cncn2C2CC2)c1)c1cc(-n2cnc3ccccc32)ccn1` [Example 88, 4-(1H-benzo[d]imidazol-1-yl)-N-(3-(1-cyclopropyl-1H-imidazol-5-yl)phenyl)picolinamide] was 35 nM; that for `O=C(Nc1cccc(-c2nncn2CC2CC2)c1)c1cc(-n2cnc(C3CC3)c2)ccn1` [Example 185, 4-(4-cyclopropyl-1H-imidazol-1-yl)-N-(3-(4-(cyclopropylmethyl)-4H-1,2,4-triazol-3-yl)phenyl)picolinamde] was 34 nM; that for `CCc1ncc(-c2ccnc(C(=O)Nc3cccc(-c4nncn4C4CC4)c3)c2)cn1` [Example 145, N-(3-(4-cyclopropyl-4H-1,2,4-triazol-3-yl)phenyl)-4-(2-ethylpyrimidin-5-yl)picolinamide] was 7 nM.
The value for `CC(C)c1cn(-c2cccc(C(=O)Nc3cccc(-c4nncn4C4CC4)n3)c2)cn1` [Example 193, N-(6-(4-cyclopropyl-4H-1,2,4-triazol-3-yl)pyridin-2-yl)-3-(4-isopropyl-1H-imidazol-1-yl)benzamide] was 5 nM.
With `O=C(Nc1cccc(-c2nncn2C2CC2)c1)c1cc(-c2cnc(C3CC3)c(Cl)c2)ccn1` [Example 135, 5-chloro-6-cyclopropyl-N-(3-(4-cyclopropyl-4H-1,2,4-triazol-3-yl)phenyl)-3,4′-bipyridine-2′-carboxamide] the figure was 131 nM; with `Cn1cnnc1-c1cccc(NC(=O)c2cc(N3CCOCC3)ccn2)c1` [Example 30, N-(3-(4-methyl-4H-1,2,4-triazol-3-yl)phenyl)-4-morpholinopicolinamide], 335 nM.
`Cn1cnc2cc(-c3ccnc(C(=O)Nc4cccc(-c5nncn5C5CC5)c4)c3)cnc21` [Example 143, N-(3-(4-cyclopropyl-4H-1,2,4-triazol-3-yl)phenyl)-4-(3-methyl-3H-imidazo[4,5-b]pyridin-6-yl)picolinamide]: the half-inhibitory concentration (IC50) worked out at 15 nM.
With `CC(C)Oc1ccc(-c2ccnc(C(=O)Nc3cccc(-c4nncn4C4CC4)c3)c2)cn1` [Example 94, N-(3-(4-cyclopropyl-4H-1,2,4-triazol-3-yl)phenyl)-6-isopropoxy-3,4′-bipyridine-2′-carboxamide] the figure was 61 nM.
The value for `O=C(Nc1cccc(-c2nncn2C2CC2)c1)c1cc(-n2cnc3cccnc32)ccn1` [Example 82, N-(3-(4-cyclopropyl-4H-1,2,4-triazol-3-yl)phenyl)-4-(3H-imidazo[4,5-b]pyridin-3-yl)picolinamide] was 20 nM; that for `Cn1cc(-c2ccnc(C(=O)Nc3cccc(-c4nncn4C4CC4)c3)c2)cn1` [Example 68, N-(3-(4-cyclopropyl-4H-1,2,4-triazol-3-yl)phenyl)-4-(1-methyl-1H-pyrazol-4-yl)picolinamide] was 39 nM.
With `O=C(Nc1cccc(-c2nncn2C2CC2)c1)c1cc(-c2cnc3ccoc3c2)ccn1` [Example 142, N-(3-(4-cyclopropyl-4H-1,2,4-triazol-3-yl)phenyl)-4-(furo[3,2-b]pyridin-6-yl)picolinamide] the figure was 11 nM.
